Our source for the MIC values is patent publication EP0246786A1, “N-1 subsituted sulfonylaminocarbonyl, C-4 substituted monobactams” (THE UPJOHN COMPANY, priority 1986, dated 1987).

In brackets after ≈: the same amount, converted by molar mass. Structures can show the parent of a compound that is named as a salt. Where two headings read alike, the source gives them in different places.

Experiment in all cases: MIC by agar dilution (in vitro antimicrobial testing)
What all share (format): cell-based
On the technique in general: In agar dilution, organisms are placed on agar that contains the substance at set levels.

One assay deals with K.pneumoniae. The following applies: Klebsiella pneumoniae, read-out: Minimum Inhibitory Concentration. How it is done:
(§1) Compounds of the invention are tested for in vitro antimicrobial activity using standard testing procedures such as the determination of minimum inhibitory concentration (MIC) by agar dilution as described in "Methods for Dilution Antimicrobial Susceptibility Tests for Bacteria That Grow Aerobically" (MF-T) Published January 1983 by the National Committee for Clinical Laboratory Standards, 771 East Lancaster Avenue, Villanova, PA 19084. Briefly, MIC values are determined in unsupple- mented Mueller Hinton Agar (MHA). The compounds tested are diluted serially into molten MHA at 47°C. The agar is poured into petri dishes and allowed to harden. The various bacteria used for testing are grown overnight on MHA at 35°C and transferred to Tryptiease Soy Broth (TSB) until a turbidity of 0.5 McFarland standard is obtained. The bacteria are diluted one to twenty in TSB and inoculated on the plates (1 µl using a Steers replicator).

Another assay deals with K. oxytoca. The conditions noted are these: Klebsiella oxytoca, read-out: Minimum Inhibitory Concentration. How it is done:
as §1

The next assay has as its system E. coli. The conditions noted are these: Escherichia coli, 20 h, 35°C, read-out: Minimum Inhibitory Concentration. The method, then:
as §1

The test system of a further assay is Ps. aeruginosa. The following applies: Pseudomonas aeruginosa, 20 h, 35°C, read-out: Minimum Inhibitory Concentration. The method, then: as §1
[1] abbreviates: E. coli Culture No. 9379, Mueller Hinton Agar.
The mark [2] stands for this setting: E. coli Culture No. 9380, Mueller Hinton Agar.
The mark [3] stands for this setting: E. coli Culture No. 9451, Mueller Hinton Agar.
[4] abbreviates: Ps. aeruginosa Culture No. 231, Mueller Hinton Agar.
The mark [5] stands for this setting: Ps. aeruginosa Culture No. 6432, Mueller Hinton Agar.
[6] abbreviates: Ps. aeruginosa Culture No. 9191, Mueller Hinton Agar.

On to `COC(=O)OC[C@@H]1[C@H](NC(=O)/C(=N\OCC(=O)O)c2csc(N)n2)C(=O)N1C(=O)NS(=O)(=O)N1CCN(NC(=O)c2cc(=O)c(O)c[nH]2)C1=O` (racemic) [Compound A, cis-(±)-3-[2-(2-Amino-4-thiazolyl)-(Z)-2-(carboxy-methoxyimino)acetamido]-1-[(5-hydroxy-4-pyridon-2-yl)carbonylamino-1-(2-imidazolidone-3-yl)sulfonylaminocarbonyl]-4-[(methoxycarbonyl)-oxymethyl]-2-azetidinone, dipotassium salt], for which the MIC in the assay with K.pneumoniae (K.pneumoniae Culture No. 58, Mueller Hinton Agar, 35°C, 20 hours) was 1 mg/L; with K. oxytoca (K. oxytoca Culture No. 9384, Mueller Hinton Agar, 35°C, 20 hours), 0.06 mg/L; in the assay on E. coli (setting [1]), at most 0.015 mg/L; with E. coli (setting [2]), at most 0.015 mg/L; in the assay with E. coli (setting [3]), at most 0.015 mg/L; with Ps. aeruginosa (setting [4]), 4 mg/L. Besides, the MIC with Ps. aeruginosa (setting [5]) was found to be 1 mg/L; with Ps. aeruginosa (setting [6]), 4 mg/L.

For `CC1C(NC(=O)C(=NOC(C)(C)C(=O)O)c2csc(N)n2)C(=O)N1S(=O)(=O)O` (stereo not shown) [Compound B, 2-[[[1-(2-amino-4-thiazolyl)-2-[(2-methyl-4-oxo-1-sulfo-3-azetidinyl)amino]-2-oxoethylidene]amino]oxy]-2-methylpropanoic acid], the MIC in the assay on K.pneumoniae (20 h) came out at 0.03 mg/L (≈ 0.0689 µM); in the assay on K. oxytoca (20 h) it was 0.03 mg/L (≈ 0.0689 µM); in the assay with E. coli (setting [1]), 0.03 mg/L (≈ 0.0689 µM); in the assay with E. coli (setting [2]), 0.06 mg/L (≈ 0.138 µM); with E. coli (setting [3]) it was 0.06 mg/L (≈ 0.138 µM); with Ps. aeruginosa (setting [4]), 8 mg/L (≈ 18.4 µM). In addition, the values for the MIC with Ps. aeruginosa (setting [5]) and in the assay on Ps. aeruginosa (setting [6]) were 8 mg/L (≈ 18.4 µM) and 2 mg/L (≈ 4.59 µM), respectively.
